According to patent EP0085842A1, “Antimycosic agents” (BAYER AG, priority 1982, dated 1983):
≈ marks a conversion by molar mass, not a printed value.

Assays:
Trichophyton mentagr. = assay: Antimycotic in-vitro activity, serial dilution test (MIC); assay type: cell-based, Trichophyton mentagrophytes; details: Sabouraud's milieu d'epreuve, 20°C, 96 h, inoculum 5 x 10^4 Keime/ml, read-out: MHK-Werte in γ/ml Nährmedium Trichophyton mentagr.
Description: (§1) Versuchsbeschreibung: • Die in-vitro-Prüfungen wurden im Reihenverdünnungstest mit Keiminokula von durchschnittlich 5 x 10^4 Keimen/ml Substrat durchgeführt. Als Nährmedium dienten • a) für Dermatophyten und Schimmelpilze: Sabouraud's milieu d'epreuve • b) für Hefen: • Fleischextrakt-Traubenzucker-Bouillon.
(§2) Die Bebrütungstemperatur betrug 20°C, die Bebrütungsdauer lag bei 24 bis 96 Stunden bei Hefen und 96 Stunden bei Dermatophyten und Schimmelpilzen.

Aspergillus fumigatus = assay: as above; assay type: cell-based; details: Sabouraud's milieu d'epreuve, 20°C, 96 h, inoculum 5 x 10^4 Keime/ml, read-out: MHK-Werte in γ/ml Nährmedium Aspergillus fumigatus
Description: as §1, §2

Candida albicans = assay: as above; assay type: cell-based; details: Fleischextrakt-Traubenzucker-Bouillon, 20°C, 24 to 96 h, inoculum 5 x 10^4 Keime/ml, read-out: MHK-Werte in γ/ml Nährmedium Candida albicans
Description: as §1, §2

Microsporum canis = assay: as above; assay type: cell-based; details: Sabouraud's milieu d'epreuve, 20°C, 96 h, inoculum 5 x 10^4 Keime/ml, read-out: MHK-Werte in γ/ml Nährmedium Microsporum canis
Description: as §1, §2

Torulopsis glabrata = assay: as above; assay type: cell-based; details: Nakaseomyces glabratus; Fleischextrakt-Traubenzucker-Bouillon, 20°C, 24 to 96 h, inoculum 5 x 10^4 Keime/ml; read-out: MHK-Werte in γ/ml Nährmedium Torulopsis glabrata
Description: as §1, §2

Candida-Zellen = assay: Antimycotic in-vivo activity (oral) in mouse candidosis; design: species or system Mäuse vom Typ SPF-CF1; key to Wirkung: +++++: sehr gute Wirkung = 90 % Überlebende am 6.Tag p.i.; ++++: gute Wirkung = 80 % Überlebende am 6.Tag p.i.; +++: Wirkung = 60 % Überlebende am 6.Tag p.i.; ++: schwache Wirkung = 40 % Überlebende am 6.Tag p.i.; +: Spur Wirkung = unter 40 % Überlebende am 6.Tag p.i.; k.W.: keine Wirkung; details: for Wirkung: mice infected i.v. with Candida, oral 50 - 100 mg/kg one hour before and seven hours after infection, survivors on day 6 p.i.; for Wirkung compared with known compounds (A), (B), (C) and (D): mouse candidosis, oral 50 - 100 mg/kg
Description: Mäuse vom Typ SPF-CF1 wurden intravenös mit 1 - 2 x 10^6 logarithmisch wachsenden Candida-Zellen, die in physiologischer Kochsalzlösung suspendiert werden, infiziert. Eine Stunde vor und sieben Sunden nach der Infektion werden die Tiere mit jeweils 50 - 100 mg/kg Körpergewicht der Präparate oral behandelt.
Unbehandelte Tiere starben 3 bis 6 Tage post infektionem. Die Überlebensrate am 6. Tag post infektionem betrug bei unbehandelten Kontrolltieren etwa 5 %.
+++++ = sehr gute Wirkung = 90 % Überlebende am 6.Tag p.i. ++++ = gute Wirkung = 80 % Überlebende am 6.Tag p.i. +++ = Wirkung = 60 % Überlebende am 6.Tag p.i. ++ = schwache Wirkung = 40 % Überlebende am 6.Tag p.i. + = Spur Wirkung = unter 40 % Überlebende am 6.Tag p.i. k.W. = keine Wirkung

| Compound | MIC (Trichophyton mentagr.) | MIC (Aspergillus fumigatus) | MIC (Candida albicans) | MIC (Microsporum canis) | MIC (Torulopsis glabrata) | Wirkung (Candida-Zellen) | Wirkung compared with known compounds (A), (B), (C) and (D) (Candida-Zellen) |
| --- | --- | --- | --- | --- | --- | --- | --- |
| C=CC(C)(C)C(O)(COc1ccc(Cl)cc1Cl)Cn1ccnc1 (stereo not drawn) [Beispiel 39] | < 1 µg/mL | 32 µg/mL (≈ 90.1 µM) | 2 µg/mL (≈ 5.63 µM) | 16 µg/mL (≈ 45 µM) | < 1 µg/mL | ++ (schwache Wirkung = 40 % Überlebende am 6.Tag p.i.) | bessere Wirkung |
| Cc1ccccc1OCC(O)(Cn1ccnc1)C(C)(C)C (stereo not drawn) [(C), reference compound] | 32 µg/mL (≈ 111 µM) | > 64 µg/mL | 32 µg/mL (≈ 111 µM) |  | > 64 µg/mL | k.W. |  |
| C=CC(C)(C)C(O)(COc1ccc(-c2ccccc2)cc1)Cn1cncn1 (stereo not drawn) [Beispiel 4, 4-(4-Biphenylyloxymethyl)-3,3-dimethyl-4-hydroxy-5-(1,2,4-triazol-1-yl)-1-penten] | < 1 µg/mL | < 1 µg/mL | < 1 µg/mL | < 1 µg/mL | 32 µg/mL (≈ 88 µM) | +++++ (sehr gute Wirkung = 90 % Überlebende am 6.Tag p.i.) | bessere Wirkung |
| CC(C)(C)C(O)(CSc1ccc(Cl)cc1)Cn1cncn1 (stereo not drawn) [Beispiel 3, 2-(4-Chlorphenylthiomethyl)-3,3-dimethyl-1-(1,2,4-triazol-1-yl)-butan-2-ol] | < 1 µg/mL | < 1 µg/mL | < 1 µg/mL | < 1 µg/mL | 2 µg/mL (≈ 6.14 µM) | ++++ (gute Wirkung = 80 % Überlebende am 6.Tag p.i.) | bessere Wirkung |
| CC(C)(COc1ccc(Cl)cc1)C(O)(COc1ccc(Cl)cc1)Cn1cncn1 (stereo not drawn) [Beispiel 19] | < 1 µg/mL | < 1 µg/mL | 8 µg/mL (≈ 18.3 µM) | 2 µg/mL (≈ 4.58 µM) | 2 µg/mL (≈ 4.58 µM) |  |  |
| CC(C)(Oc1ccc(Cl)cc1Cl)C(O)(CCc1ccc(Cl)cc1)Cn1cncn1 (stereo not drawn) [Beispiel 30] | < 1 µg/mL | 4 µg/mL (≈ 8.8 µM) | 16 µg/mL (≈ 35.2 µM) | 64 µg/mL (≈ 141 µM) | 8 µg/mL (≈ 17.6 µM) |  |  |
| CC(C)(C)C(O)(COc1ccc(Cl)cc1)Cn1ccnc1 (stereo not drawn) [(A), reference compound] | 8 µg/mL (≈ 25.9 µM) | 32 µg/mL (≈ 104 µM) | < 1 µg/mL | 16 µg/mL (≈ 51.8 µM) | 2 µg/mL (≈ 6.48 µM) | k.W. |  |
| COCC(C)(C)C(O)(COc1ccc(Cl)cc1)Cn1cncn1 (stereo not drawn) [Beispiel 2] | 2 µg/mL (≈ 5.89 µM) | 8 µg/mL (≈ 23.5 µM) | < 1 µg/mL | 4 µg/mL (≈ 11.8 µM) | 8 µg/mL (≈ 23.5 µM) |  |  |
| CC(C)(COc1ccc(Cl)cc1)C(O)(CCc1ccc(Cl)cc1)Cn1cncn1 (stereo not drawn) [Beispiel 29] | < 1 µg/mL | < 1 µg/mL | 16 µg/mL (≈ 36.8 µM) | 2 µg/mL (≈ 4.6 µM) | 2 µg/mL (≈ 4.6 µM) |  |  |
| CCOCC(C)(C)C(O)(COc1ccc(Cl)cc1)Cn1cncn1 (stereo not drawn) [Beispiel 18] | < 1 µg/mL | 4 µg/mL (≈ 11.3 µM) | < 1 µg/mL | 4 µg/mL (≈ 11.3 µM) | 4 µg/mL (≈ 11.3 µM) |  |  |
| C=CC(C)(C)C(O)(COc1ccc(F)cc1)Cn1ccnc1 (stereo not drawn) [Beispiel 40] |  |  |  |  |  | ++ (schwache Wirkung = 40 % Überlebende am 6.Tag p.i.) | bessere Wirkung |
| COCC(C)(C)C(O)(COc1ccc(Cl)cc1Cl)Cn1cncn1 (stereo not drawn) [Beispiel 16] | < 1 µg/mL | 8 µg/mL (≈ 21.4 µM) | < 1 µg/mL | 2 µg/mL (≈ 5.34 µM) | 2 µg/mL (≈ 5.34 µM) |  |  |
| CC(C)(Oc1ccc(Cl)cc1)C(O)(CCc1ccc(Cl)cc1)Cn1ccnc1 (stereo not drawn) [Beispiel 34] | < 1 µg/mL | < 1 µg/mL | < 1 µg/mL | < 1 µg/mL | < 1 µg/mL |  |  |
| Cc1ccccc1OCC(O)(Cn1cncn1)C(C)(C)C (stereo not drawn) [(B), reference compound] | 4 µg/mL (≈ 13.8 µM) | 32 µg/mL (≈ 111 µM) | 32 µg/mL (≈ 111 µM) | 4 µg/mL (≈ 13.8 µM) | > 64 µg/mL | k.W. |  |
